Test results published in patent publication EP0245669B1, “Pharmaceutical preparation for preventing damage to living cells by free radicals, or for increasing the efficacy of organic sulphur compounds, and process for increasing the life span of isolated organs” (Medopharm Arzneimittelwerk Dr. Zillich GmbH & Co., priority 1986, dated 1987).

Experiments:
[1] = system: weiblichen C3H Mäusen; assay: Radiation protection: survival of mice after gamma irradiation (cobalt-60) following i.p. pretreatment; assay type: in vivo, Mäuse; conditions: for Ueberlebensrate nach Bestrahlung mit 9 Gy Anzahl / Ueberlebensrate nach Bestrahlung mit 10 Gy Anzahl / Ueberlebensrate nach Bestrahlung mit 11 Gy Anzahl / Ueberlebensrate nach Bestrahlung mit 12 Gy Anzahl / Ueberlebensrate nach Bestrahlung mit 13 Gy Anzahl: surviving/irradiated mice; for Ueberlebensrate in %: best result with zinc aspartate alone, 30 days after irradiation; for Ueberleben einer Bestrahlung von 14 Gy: zinc aspartate alone
Excerpt: In den nachfolgenden Beispielen wurde die synergistische Wirkung der durch die erfindungsgemässe Verwendung hergestellten pharmazeutischen Präparate mit organische Schwefelverbindungen enthaltenden Präparaten anhand des Strahlenschutzes getestet und es wurde auch die Strahlenschutzwirkung der Zinkionen enthaltenden Präparate mit bisher bekannten Strahlenschutzpräparaten an Mäusen getestet. Die Versuche wurden mit weiblichen C3H Mäusen (GL. Bomholtgard, Ry, Dänemark) durchgeführt, die 20 bis 22 g wogen. Die Mäuse wurden unter Bedingungen gehalten, wo sie so viel Standard-Nagetierfutter (Nafag Pellts) fressen und so viel Leitungswasser trinken können, wie sie wollten. Die Bestrahlung erfolgte mit Gammastrahlen aus einer Kobalt-60 Quelle. Es wurden unterschiedliche Bestrahlungen vorgenommen, und zwar mit 9 Gy, 10 Gy, 11 Gy, 12 Gy, 13 Gy und 14 Gy.
10 Minuten vor der Bestrahlung, 30 Minuten vor der Bestrahlung oder 120 Minuten vor der Bestrahlung wurde ein durch die erfindungsgemässe Verwendung hergestelltes synergistisch wirkendes pharmazeutisches Präparat, bzw. ein entsprechendes, Zinkionen enthaltendes Strahlenschutzpräparat oder ein aus dem Stand der Technik bekanntes Strahlenschutzpräparat zu Vergleichszwecken durch intraperitoneale Injektion verabreicht.
Bei der Gruppe der Mäuse zu Vergleichszwecken, die ohne Verabreichung eines Strahlenschutzpräparates bestrahlt wurden, erfolgte 10 Minuten vor der Bestrahlung die Verabreichung von destilliertem Wasser. Bei diesen unbehandelten Mäusen überlebten nur 50% der Tiere eine Bestrahlung von 8 Gy, d.h. der LD₅₀-Wert betrug 8 Gy.
Nach den Arbeitsweisen der vorangegangenen Beispiele 1 bis 4, wurden weitere Tests mit den genannten weiblichen Mäusen durchgeführt, und zwar unter Verwendung der angeführten Zinksalze. Die bei diesen Tests erzielten Ergebnisse sind in der nachfolgenden Tabelle I zusammengestellt. Für jede der angewandten Bestrahlungsstärken ist in der Rubrik "Anzahl" diejenige Anzahl der Mäuse angeführt, welche die Bestrahlung überlebten, geteilt durch die Gesamtzahl der Mäuse, welche bestrahlt wurden. Ein entsprechender Wert von 1/10 bedeutet also, dass von 10 bestrahlten Mäusen eine überlebt hatte. In der Spalte mit der Bezeichnung "Prozent", ist die Prozent-Ueberlebensrate angeführt. Bei einer überlebenden Maus pro 10 getesteten Mäusen beträgt diese Ueberlebensrate 10 %.
Zu Vergleichszwecken sind in der nachfolgenden Tabelle III die Ueberlebensraten von Mäusen zusammengestellt, die nach dem in Beispiel 5 beschriebenen Verfahren einer Vorbehandlung mit einem bekannten schwefelhaltigen Strahlenschutzmittel unterworfen worden waren. Orientierende Vorversuche hatten gezeigt, dass diese Strahlenschutzmittel bereits ihre Wirkung verloren hatten, wenn sie zwei Stunden vor der Einwirkung der Bestrahlung verabreicht worden waren. Die Bestrahlung wurde, wie aus der Tabelle ersichtlich ist, zwei Minuten nach der Verabreichung, in den meisten Fällen 10 Minuten nach der Verabreichung, aber auch 30 Minuten, bzw. 120 Minuten nach der Verabreichung durchgeführt. Die Werte deuten darauf hin, dass 30 Minuten nach der Verabreichung die Schutzwirkung schon wieder deutlich nachgelassen hat. Für jede Bestrahlungsstärke ist wiederum die Anzahl der Tiere angeführt, die nach 30 Tagen überlebt haben, geteilt durch die Gesamtzahl der Tiere, die behandelt und bestrahlt worden waren.
Anhand dieses Beispiels soll die synergistische Wirkung von Zinkionen und Schwefelverbindungen bezüglich eines Strahlenschutzes erläutert werden. Es wurde wieder in der gleichen Weise gearbeitet, wie in den vorangegangenen Beispielen 1 bis 3, bzw. 5, und es wurde auch die gleiche Art an weiblichen Mäusen getestet. Die Verabreichung der Zinkionen enthaltenden Lösung und der Lösung der Schwefelverbindung erfolgte entweder nacheinander oder gleichzeitig durch intraperitoneale Injektion.
In allen Fällen wurde die Ueberlebensrate 30 Tage nach der Einwirkung der Bestrahlung bestimmt.

[2] = system: Mäuse; assay: Toxicity of the zinc salts used as radiation protection agents (LD50); assay type: in vivo
Description: In diesem Beispiel wurde die Toxizität der als Strahlenschutzmittel eingesetzten Zinksalze getestet.
Der LD₅₀-Wert betrug für das Zinkaspartat 55 mg/kg Körpergewicht, für das Zinkchlorid 24 mg/kg Körpergewicht und für das Zinksulfat 45 mg/kg Körpergewicht.

[3] = Floersheim, Agents Actions 16, 580 (1985); cited from earlier work
[4] = 10 mg/kg i.p., 10 min before 9 Gy
[5] = 20 mg/kg i.p., 10 min before 9 Gy
[6] = 20 mg/kg i.p., 10 min before 10 Gy
[7] = 20 mg/kg i.p., 10 min before 11 Gy
[8] = 20 mg/kg i.p., 30 min before 9 Gy
[9] = 20 mg/kg i.p., 30 min before 10 Gy
[10] = 20 mg/kg i.p., 120 min before 9 Gy
[11] = 20 mg/kg i.p., 120 min before 10 Gy
[12] = 30 mg/kg i.p., 10 min before 9 Gy
[13] = 30 mg/kg i.p., 10 min before 10 Gy
[14] = 30 mg/kg i.p., 10 min before 11 Gy
[15] = 30 mg/kg i.p., 10 min before 12 Gy
[16] = 30 mg/kg i.p., 10 min before 13 Gy
[17] = 30 mg/kg i.p., 30 min before 9 Gy
[18] = 30 mg/kg i.p., 30 min before 10 Gy
[19] = 30 mg/kg i.p., 30 min before 11 Gy
[20] = 30 mg/kg i.p., 30 min before 12 Gy
[21] = 30 mg/kg i.p., 30 min before 13 Gy
[22] = 30 mg/kg i.p., 120 min before 9 Gy
[23] = 30 mg/kg i.p., 120 min before 10 Gy
[24] = 30 mg/kg i.p., 120 min before 11 Gy
[25] = 30 mg/kg i.p., 120 min before 12 Gy
[26] = 30 mg/kg i.p., 120 min before 13 Gy
[27] = 40 mg/kg i.p., 10 min before 9 Gy
[28] = 40 mg/kg i.p., 10 min before 10 Gy
[29] = 40 mg/kg i.p., 10 min before 11 Gy
[30] = 40 mg/kg i.p., 10 min before 12 Gy
[31] = 40 mg/kg i.p., 10 min before 13 Gy
[32] = 40 mg/kg i.p., 30 min before 9 Gy
[33] = 40 mg/kg i.p., 30 min before 10 Gy
[34] = 40 mg/kg i.p., 30 min before 11 Gy
[35] = 40 mg/kg i.p., 30 min before 12 Gy
[36] = 40 mg/kg i.p., 30 min before 13 Gy
[37] = 40 mg/kg i.p., 120 min before 9 Gy
[38] = 40 mg/kg i.p., 120 min before 10 Gy
[39] = 40 mg/kg i.p., 120 min before 11 Gy
[40] = 40 mg/kg i.p., 120 min before 12 Gy
[41] = 40 mg/kg i.p., 120 min before 13 Gy

## Zink-bis-(DL-hydrogenaspartat) [Zinkaspartat]
[1]; [4]
  Ueberlebensrate nach Bestrahlung mit 9 Gy %: 10%
  Ueberlebensrate nach Bestrahlung mit 9 Gy Anzahl: 1/10
[1]; [5]
  Ueberlebensrate nach Bestrahlung mit 9 Gy %: 67%
  Ueberlebensrate nach Bestrahlung mit 9 Gy Anzahl: 26/39
[1]; [6]
  Ueberlebensrate nach Bestrahlung mit 10 Gy %: 29%
  Ueberlebensrate nach Bestrahlung mit 10 Gy Anzahl: 13/45
[1]; [7]
  Ueberlebensrate nach Bestrahlung mit 11 Gy %: 0%
  Ueberlebensrate nach Bestrahlung mit 11 Gy Anzahl: 0/20
[1]; [8]
  Ueberlebensrate nach Bestrahlung mit 9 Gy %: 60%
  Ueberlebensrate nach Bestrahlung mit 9 Gy Anzahl: 6/10
[1]; [9]
  Ueberlebensrate nach Bestrahlung mit 10 Gy %: 0%
  Ueberlebensrate nach Bestrahlung mit 10 Gy Anzahl: 1/10
[1]; [10]
  Ueberlebensrate nach Bestrahlung mit 9 Gy %: 50%
  Ueberlebensrate nach Bestrahlung mit 9 Gy Anzahl: 5/10
[1]; [11]
  Ueberlebensrate nach Bestrahlung mit 10 Gy %: 0%
  Ueberlebensrate nach Bestrahlung mit 10 Gy Anzahl: 0/10
[1]; [12]
  Ueberlebensrate nach Bestrahlung mit 9 Gy %: 88%
  Ueberlebensrate nach Bestrahlung mit 9 Gy Anzahl: 43/49
[1]; [13]
  Ueberlebensrate nach Bestrahlung mit 10 Gy %: 74^+ %
  Ueberlebensrate nach Bestrahlung mit 10 Gy Anzahl: 43/58
[1]; [14]
  Ueberlebensrate nach Bestrahlung mit 11 Gy %: 10%
  Ueberlebensrate nach Bestrahlung mit 11 Gy Anzahl: 3/30
[1]; [15]
  Ueberlebensrate nach Bestrahlung mit 12 Gy %: 3%
  Ueberlebensrate nach Bestrahlung mit 12 Gy Anzahl: 1/30
[1]; [16]
  Ueberlebensrate nach Bestrahlung mit 13 Gy %: 0%
  Ueberlebensrate nach Bestrahlung mit 13 Gy Anzahl: 0/20
[1]; [17]
  Ueberlebensrate nach Bestrahlung mit 9 Gy %: 80%
  Ueberlebensrate nach Bestrahlung mit 9 Gy Anzahl: 8/10
[1]; [18]
  Ueberlebensrate nach Bestrahlung mit 10 Gy %: 70%
  Ueberlebensrate nach Bestrahlung mit 10 Gy Anzahl: 21/30
[1]; [19]
  Ueberlebensrate nach Bestrahlung mit 11 Gy %: 60%
  Ueberlebensrate nach Bestrahlung mit 11 Gy Anzahl: 24/40
[1]; 30 mg/kg i.p., 30 min before 11 Gy, listed as Zink-aspartat
  Ueberlebensrate nach Bestrahlung mit 11 Gy %: 60^+ %
[1]; [20]
  Ueberlebensrate nach Bestrahlung mit 12 Gy %: 57%
  Ueberlebensrate nach Bestrahlung mit 12 Gy Anzahl: 17/30
[1]; 30 mg/kg i.p., 30 min before 12 Gy, listed as Zink-aspartat
  Ueberlebensrate nach Bestrahlung mit 12 Gy %: 57^+ %
[1]; [21]
  Ueberlebensrate nach Bestrahlung mit 13 Gy %: 17%
  Ueberlebensrate nach Bestrahlung mit 13 Gy Anzahl: 5/30
[1]; [22]
  Ueberlebensrate nach Bestrahlung mit 9 Gy %: 90^+ %
  Ueberlebensrate nach Bestrahlung mit 9 Gy Anzahl: 9/10
[1]; [23]
  Ueberlebensrate nach Bestrahlung mit 10 Gy %: 40%
  Ueberlebensrate nach Bestrahlung mit 10 Gy Anzahl: 8/20
[1]; [24]
  Ueberlebensrate nach Bestrahlung mit 11 Gy %: 53%
  Ueberlebensrate nach Bestrahlung mit 11 Gy Anzahl: 16/30
[1]; [25]
  Ueberlebensrate nach Bestrahlung mit 12 Gy %: 35%
  Ueberlebensrate nach Bestrahlung mit 12 Gy Anzahl: 7/20
[1]; [26]
  Ueberlebensrate nach Bestrahlung mit 13 Gy %: 14%
  Ueberlebensrate nach Bestrahlung mit 13 Gy Anzahl: 4/29
[1]; [27]
  Ueberlebensrate nach Bestrahlung mit 9 Gy %: 59%
  Ueberlebensrate nach Bestrahlung mit 9 Gy Anzahl: 17/29
[1]; [28]
  Ueberlebensrate nach Bestrahlung mit 10 Gy %: 55%
  Ueberlebensrate nach Bestrahlung mit 10 Gy Anzahl: 16/29
[1]; [29]
  Ueberlebensrate nach Bestrahlung mit 11 Gy %: 3%
  Ueberlebensrate nach Bestrahlung mit 11 Gy Anzahl: 1/40
[1]; [30]
  Ueberlebensrate nach Bestrahlung mit 12 Gy %: 17%
  Ueberlebensrate nach Bestrahlung mit 12 Gy Anzahl: 5/30
[1]; [31]
  Ueberlebensrate nach Bestrahlung mit 13 Gy %: 5%
  Ueberlebensrate nach Bestrahlung mit 13 Gy Anzahl: 1/19
[1]; [32]
  Ueberlebensrate nach Bestrahlung mit 9 Gy %: 45%
  Ueberlebensrate nach Bestrahlung mit 9 Gy Anzahl: 9/20
[1]; [33]
  Ueberlebensrate nach Bestrahlung mit 10 Gy %: 70%
  Ueberlebensrate nach Bestrahlung mit 10 Gy Anzahl: 7/10
[1]; [34]
  Ueberlebensrate nach Bestrahlung mit 11 Gy %: 50%
  Ueberlebensrate nach Bestrahlung mit 11 Gy Anzahl: 5/10
[1]; [35]
  Ueberlebensrate nach Bestrahlung mit 12 Gy %: 30%
  Ueberlebensrate nach Bestrahlung mit 12 Gy Anzahl: 3/10
[1]; [36]
  Ueberlebensrate nach Bestrahlung mit 13 Gy %: 24^+ %
  Ueberlebensrate nach Bestrahlung mit 13 Gy Anzahl: 7/29
[1]; [37]
  Ueberlebensrate nach Bestrahlung mit 9 Gy %: 50%
  Ueberlebensrate nach Bestrahlung mit 9 Gy Anzahl: 5/10
[1]; [38]
  Ueberlebensrate nach Bestrahlung mit 10 Gy %: 50%
  Ueberlebensrate nach Bestrahlung mit 10 Gy Anzahl: 5/10
[1]; [39]
  Ueberlebensrate nach Bestrahlung mit 11 Gy %: 10%
  Ueberlebensrate nach Bestrahlung mit 11 Gy Anzahl: 1/10
[1]; [40]
  Ueberlebensrate nach Bestrahlung mit 12 Gy %: 0%
  Ueberlebensrate nach Bestrahlung mit 12 Gy Anzahl: 0/10
[1]; [41]
  Ueberlebensrate nach Bestrahlung mit 13 Gy %: 5%
  Ueberlebensrate nach Bestrahlung mit 13 Gy Anzahl: 1/19
[1]; 8 Gy
  Ueberlebensrate in %: 100%
[1]; 9 Gy
  Ueberlebensrate in %: 90%
[1]; 10 Gy
  Ueberlebensrate in %: 74%
[1]; 11 Gy
  Ueberlebensrate in %: 60%
[1]; 12 Gy
  Ueberlebensrate in %: 57%
[1]; 13 Gy
  Ueberlebensrate in %: 24%
[1]; 14 Gy
  Ueberlebensrate in %: 0%
[1]; comparison with Zinkchlorid and Zinksulfat
  Strahlenschutzwirkung: Besonders vorteilhaft
[1]; 20 mg/kg body weight, 14 Gy
  Ueberleben einer Bestrahlung von 14 Gy: nicht überlebten
[1]; 30 mg/kg body weight, 14 Gy
  Ueberleben einer Bestrahlung von 14 Gy: nicht überlebten
[2]
  LD₅₀-Wert: 55 mg/kg Körpergewicht
[3]
  akute Toxizität von Aethanol: vermindert
